Data reported in patent publication US6063797A, “γ-RAR antagonist ligand or α-RAR agonist ligand as an apoptosis inhibitor” (priority 1995, dated 2000).
Like-named read-outs stand apart in the source and are kept apart here.

Key:
[1] = target: T1, RAR-α (Homo sapiens, UniProt P10276); assay: Dissociation constant for RAR-α receptors; assay type: binding
T1 sequence (P10276 1-462): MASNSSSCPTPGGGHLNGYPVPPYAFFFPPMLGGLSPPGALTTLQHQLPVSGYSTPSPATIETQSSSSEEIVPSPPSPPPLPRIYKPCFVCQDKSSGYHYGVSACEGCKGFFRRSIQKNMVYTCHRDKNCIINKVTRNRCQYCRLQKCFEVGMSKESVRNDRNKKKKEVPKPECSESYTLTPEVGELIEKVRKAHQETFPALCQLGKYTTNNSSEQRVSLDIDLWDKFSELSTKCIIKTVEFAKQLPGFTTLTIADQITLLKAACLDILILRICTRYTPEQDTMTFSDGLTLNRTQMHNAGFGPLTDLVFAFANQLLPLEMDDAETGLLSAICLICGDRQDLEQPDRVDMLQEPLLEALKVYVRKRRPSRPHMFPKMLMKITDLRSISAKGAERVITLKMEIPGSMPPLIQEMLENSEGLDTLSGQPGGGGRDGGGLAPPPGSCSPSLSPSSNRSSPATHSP

[2] = system: thymocytes; assay: DNA fragmentation (apoptosis) in thymocytes induced by CD437 (Example 2); assay type: cell-based, mouse (NMRI); settings: for % of DNA fragments: difference treated minus untreated
Description: (§1) Thymus glands from untreated 4-week old NMRI male mice (sold by LATI, Godollo, Hungary) are used as the starting material for preparing thymocyte suspensions. The medium employed is Sigma RPMI 1640 medium which is supplemented with Gibco foetal calf serum, 2 mM glutamine, 100 IU of penicillin and 100 μg of streptomycin/ml. The thymocytes are then washed and diluted, in order to obtain a final concentration of 10^7 cells/ml, before incubating them at 37° C. in a humidified incubator under an atmosphere of 5% CO2 and 95% air. The death of the cells is measured by the uptake of trypan blue.
(§2) The thymocytes are incubated in 24 wells together with various compounds to be tested. After 6 hours of incubation, 0.8 ml volumes of cell suspensions were lysed by the addition of 0.7 ml of lysis buffer containing 0.5% (v/v) Triton X-100, 10 mM Tris, 20 mM EDTA, pH 8.0, before being centrifuged at 13,000 g for 15 minutes.
(§3) Quantitative analysis of the DNA: the DNA contained in the supernatant (the fragments) and the pellet (intact chromatin) was precipitated with an equivalent quantity of 10% trichloroacetic acid, resuspended in 5% trichloroacetic acid and then quantified using the diphenylamine reagent (Burton, K. (1956) Biochem. J., 62, 315-322).
The procedure is the same as in the preceding example, except that the nature of the ligands to be tested, and their concentration, are altered.
(§4) The percentage of DNA fragment in this table corresponds to the difference between the percentage of DNA fragment obtained in the treated thymocytes and the percentage of DNA fragment obtained in the untreated thymocytes (basal rate of apoptosis for these thymocytes).

[3] = system: thymocytes; assay: DNA fragmentation (apoptosis) in thymocytes induced by activating a T-cell receptor with phorbol dibutyrate + Ca++ ionophore (Example 3); assay type: cell-based, mouse (NMRI); settings: for % of DNA fragments: difference treated minus untreated
[4] = system: thymocytes; assay: Quantitative DNA fragmentation (apoptosis) in thymocytes, retinoid-induced (Example 1); assay type: cell-based, mouse (NMRI); settings: for % of DNA fragments: 6 h
Description: as §1, §2, §3
Qualitative analysis of the DNA: in parallel, the supernatant was precipitated overnight in ethanol containing […]. The pellets are redissolved in a buffer containing 10 mM Tris, 1 mM EDTA, pH 8.0, after which the solutions are treated with RNase and sequentially extracted with an equal volume of phenol and chloroform/isoamyl alcohol (24/1); the DNA is then precipitated in ethanol before electrophoresis for 3 hours at 60 V in a 1.8% agarose gel. The DNA fragments were then visualized by UV after the gel had been stained with ethidium bromide. The gels obtained display the picture of a ladder of DNA fragments which are multiples of from 180 to 200 base pairs and which are typical for an apoptosis induction. Throughout the experiments, the degree of fragmentation correlates with the number of cells which are dead and which are positive to the trypan blue test.
as §4

[5] = system: thymus; assay type: in vivo, mouse (NMRI); settings: for Weight of the thymus: 48 h, control 98.2 ± 19.6
Description: 4-week-old male NMRI mice (sold by LATI, Godollo, Hungary) were used. […] For the control, male mice were treated by a single intraperitoneal injection of a mixture of 40 μl of DMSO and 0.5 ml of 20% ethanol. The CD2665 was also tested alone under the same conditions as before and in a quantity of 0.5 mg. The weight of the thymus was determined after 48 hours of treatment, and the results are assembled in Table 4 below.

[6] = target: T2, RAR-γ (Homo sapiens, UniProt P13631); assay: Dissociation constant for RAR-γ receptors; assay type: binding
T2 sequence (P13631 1-454): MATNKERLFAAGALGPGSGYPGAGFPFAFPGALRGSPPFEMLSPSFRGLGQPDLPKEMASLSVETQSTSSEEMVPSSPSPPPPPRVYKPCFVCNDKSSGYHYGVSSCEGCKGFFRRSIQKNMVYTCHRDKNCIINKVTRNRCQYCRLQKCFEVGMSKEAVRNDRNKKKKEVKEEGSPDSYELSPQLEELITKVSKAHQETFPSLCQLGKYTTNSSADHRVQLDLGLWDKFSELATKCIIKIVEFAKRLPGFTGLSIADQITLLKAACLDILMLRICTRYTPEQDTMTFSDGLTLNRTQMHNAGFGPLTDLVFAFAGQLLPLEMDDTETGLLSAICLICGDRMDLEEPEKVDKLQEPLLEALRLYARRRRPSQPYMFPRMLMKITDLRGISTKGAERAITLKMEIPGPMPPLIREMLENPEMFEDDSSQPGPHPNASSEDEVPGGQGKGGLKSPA

[7] = 0.5 mg single intraperitoneal injection, alone

SMILES: CC1(C)CCC(C)(C)c2cc(C(=O)Nc3ccc(C(=O)O)c(O)c3)ccc21 [2-hydroxy-4-(5,5,8,8-tetramethyl-5,6,7,8-tetrahydronaphthalene-2-carboxamido)benzoic acid]
- dissociation constant for RAR-α lower than dissociation constant for RAR-γ (fold) ([1]; RAR-α versus RAR-γ): at least 20 times

SMILES: CC1(C)CCC(C)(C)c2cc(C(=O)Nc3ccc(C(=O)O)cc3)ccc21 [CD336, 4-((5,6,7,8-tetrahydro-5,5,8,8-tetramethyl-2-naphthalenyl)carboxamido)benzoic acid]
- % of DNA fragments ([2]; CD336 alone 10^-6 M): 0%
- % of DNA fragments ([2]; CD336 alone 10^-7 M): 0%
- % of DNA fragments ([2]; CD336 alone 10^-8 M): 0%
- % of DNA fragments ([2]; CD437 + CD336 10^-6 M): 0%
- % of DNA fragments ([2]; CD437 + CD336 10^-7 M): 5%
- % of DNA fragments ([2]; CD437 + CD336 10^-8 M): 17%
- inhibition of apoptosis induced by CD437 ([2]; conclusion from Table 2): inhibited in a dose-dependent manner
- % of DNA fragments ([3]; (P + C) + CD336 30 nM): 9.6%
- % of DNA fragments ([3]; (P + C) + CD336 300 nM): 8.4%
- % of DNA fragments ([3]; (P + C) + CD336 3000 nM): 1.1%
- % of DNA fragments ([3]; CD336 alone 30 nM): 0%
- % of DNA fragments ([3]; CD336 alone 300 nM): 0%
- % of DNA fragments ([3]; CD336 alone 3000 nM): 0%
- inhibition of apoptosis induced by P+C ([3]; conclusion from Table 3): inhibited in a dose-dependent manner

SMILES: CC1=C(/C=C/C(C)=C\C=C\C(C)=C\C(=O)O)C(C)(C)CCC1 [9-cisRA, 9-cis-retinoic acid, reference compound]
- % of DNA fragments ([4]; 9-cisRA 1000 nM, difference treated minus untreated thymocytes): 19%

SMILES: COCCOCOc1cc2ccc(-c3ccc(C(=O)O)cc3)cc2cc1C12CC3CC(CC(C3)C1)C2 [CD2665, 4-[7-(1-adamantyl)-6-methoxyethoxymethoxy-2-naphthyl]benzoic acid]
- Kd [1]: > 2250 nM
- Weight of the thymus [5, 7]: 107.6 ± 21.7 mg
- Weight of the thymus ([5]; CD2665 5 mg + CD437 0.5 mg, single intraperitoneal injection): 63.3 ± 9.1 mg
- involution of the thymus ([5]; alone, conclusion from Table 4): no significant change is observed
- involution of the thymus ([5]; combination of CD2665 and CD437, compared with CD437 alone): involution of the thymus which is much less marked than that observed with CD437 alone
- % of DNA fragments ([4]; CD2665 200 nM + 9-cisRA 1000 nM, difference treated minus untreated): 1.5%
- % of DNA fragments ([4]; CD2665 200 nM + ATRA 5000 nM, difference treated minus untreated): 0%
- % of DNA fragments ([4]; CD2665 200 nM + CD437 300 nM, difference treated minus untreated): 1.0%
- % of DNA fragments ([4]; CD2665 200 nM alone, difference treated minus untreated thymocytes): 0.5%
- inhibition of apoptosis induced by ATRA, 9-cisRA and CD437 ([4]; conclusion from Table 1): inhibited
- Kd [6]: 110 nM
- dissociation constant for RAR-γ lower than dissociation constant for RAR-α (fold) ([6]; RAR-γ versus RAR-α): at least 20 times

SMILES: CC1=C(/C=C/C(C)=C/C=C/C(C)=C/C(=O)O)C(C)(C)CCC1 [ATRA, all-trans retinoic acid, reference compound]
- % of DNA fragments ([4]; ATRA 5000 nM, difference treated minus untreated thymocytes): 17%

SMILES: O=C(O)c1ccc2cc(-c3ccc(O)c(C45CC6CC(CC(C6)C4)C5)c3)ccc2c1 [CD437, reference compound]
- % of DNA fragments ([2]; CD437 alone 0.3 × 10^-6 M): 17%
- Weight of the thymus [5, 7]: 31.3 ± 13.6 mg
- involution of the thymus ([5]; alone, conclusion from Table 4): involution of the thymus is observed
- % of DNA fragments ([4]; CD437 300 nM, difference treated minus untreated thymocytes): 24%
